Assay results as given in PubChem BioAssay (NCI).
“And” between values parts separate entries of the source, which are not always exact repeats. Equal entries are not always repeated.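 Assay format: 96-well plates, 48-hour exposure. GI50 is the concentration that inhibits growth by half. TGI: total growth inhibition.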 Where a SMILES comes first, the peptide text is derived from it. [ ]: non-standard residue; d: D form. The star is where a group is joined. Phe(4-NO2) = N[CH](Cc1ccc([N+](=O)[O-])cc1)C(=O)O; Boc = CC(C)(C)OC(=O)*

Tests used:
Assay in all cases: growth of human tumour cells (NCI), 48 h
UO-31 renal = system: UO-31 renal
NCI-H23 lung = system: NCI-H23 lung
BT-549 breast = system: BT-549 breast
RPMI-8226 leukemia = system: RPMI-8226 leukemia
M14 melanoma = system: M14 melanoma

| SMILES | TGI (UO-31 renal) | TGI (NCI-H23 lung) | TGI (BT-549 breast) | TGI (RPMI-8226 leukemia) | TGI (M14 melanoma) | GI50 (UO-31 renal) | GI50 (NCI-H23 lung) | GI50 (RPMI-8226 leukemia) | GI50 (M14 melanoma) |
| --- | --- | --- | --- | --- | --- | --- | --- | --- | --- |
| CC1=C(C(=O)Nc2ccccc2)C2(CCCCC2)C(C#N)=C(SCC(=O)Nc2ccc(Br)cc2)N1 | 2.76 µM | 23.3 µM | 33.4 µM | 7.11 µM | 10.9 µM | – | – | – | – |
| CC(=O)Nc1c(C)cc2c(nc3n2CCC3O)c1[N+](=O)[O-] (stereo unspecified) | > 100 µM | > 100 µM | > 100 µM | > 100 µM | > 100 µM | – | – | – | – |
| COC(=O)C1OC(O[C@H]2CC[C@]3(C)[C@H]4CC=C5[C@@H]6CC(C)(C)CC[C@]6(C(=O)OC6OCC(O)C(O)C6OC6OC(C)C(OC7OCC(O)C(O)C7O)C(O)C6O)CC[C@@]5(C)[C@]4(C)CC[C@H]3C2(C)C)C(O)C(O)C1O (stereo partly specified) | 26.5 µM and 36 µM | 29.1 µM and 30 µM | 34.1 µM and 33.2 µM | > 100 µM and 42 µM | 28.6 µM and 32.5 µM | – | – | – | – |
| CC(C)NC(=O)CN1CCN(c2c(O)c3c(c(O)c2Cl)C(=O)C=CC3=O)CC1 | 2.64 µM | 3.02 µM | 2.85 µM | 7.27 µM | 2.93 µM | – | – | – | – |
| Cc1ccc(NC(=O)c2cc(S(=O)(=O)Nc3nc4ncccc4[nH]3)c(SSc3cc(Cl)c(C(=O)Nc4ccc(C)cc4)cc3S(=O)(=O)Nc3nc4ncccc4[nH]3)cc2Cl)cc1 | > 100 µM | > 100 µM | > 100 µM | > 100 µM | > 100 µM | – | – | – | – |
| CCOC(=O)c1ccc(N=c2sc3ccccc3nc2Nc2ccc(C(=O)OCC)cc2)cc1 | > 100 µM | > 100 µM | – | > 100 µM | – | – | – | – | – |
| C=C1C2C[C@@H]3O[C@H]4C[C@H]5O[C@@]6(C[C@@H]7O[C@]8(C[C@H](C)[C@@H]9O[C@@H]%10CC(CO)O[C@@H]%10C[C@@H]9O8)C[C@H](C)[C@@H]7O6)C[C@H]5O[C@H]4[C@H](C)[C@H]3OC(=O)C[C@H]3CC[C@@H]4OC5[C@H]6O[C@]7(CC[C@H]8CC(=C)[C@H](CC[C@@H](C[C@H]1C)O2)O8)CC6O[C@@H]5[C@@H](O7)[C@H]4O3 (stereo partly specified) | > 1 µM | 0.00124 µM | < 0.0001 µM | > 1 µM | > 1 µM | – | – | – | – |
| COc1cc2c(cc1OCCCC(=O)Nc1ccc3ccc4cccc5ccc1c3c45)N=C[C@@H]1CCCN1C2=O | – | < 0.01 µM | – | 0.238 µM | < 0.01 µM | < 0.0158 µM | < 0.01 µM | 0.042 µM | < 0.01 µM |
| CC(=O)OCc1ccc2oc(=O)c(C(=O)Oc3ccccc3)cc2c1 | > 100 µM | > 100 µM | > 100 µM | > 100 µM | > 100 µM | – | – | – | – |
| COc1ccc(/C=C2\CCC(C)C3=C2N=c2s/c(=C/c4cccc(Br)c4)c(=O)n2C3c2ccc(OC)c(OC)c2)cc1OC (stereo unspecified) | – | – | – | > 100 µM | > 100 µM | – | – | – | – |
| CNC(=O)CCC(NC(=O)OC(C)(C)C)C(=O)NC(Cc1ccc([N+](=O)[O-])cc1)C(=O)NCC(=O)NC (stereo unspecified) (Boc-Glu(NHMe)-[Phe(4-NO2)]-Gly-NHMe; configuration not given here) | > 100 µM | > 100 µM | > 100 µM | > 100 µM | > 100 µM | – | – | – | – |
| Cc1ccc2c(c1)-c1nc(N)c(C#N)c(-c3ccccc3)c1CCS2(=O)=O | > 100 µM | > 100 µM | > 100 µM | > 100 µM | > 100 µM | – | – | – | – |
| O=C1Oc2cc(O)cc(/C=C/c3ccc(O)cc3)c2[C@@]12c1c(O)cc(O)cc1OC2c1cccc(O)c1 (stereo partly specified) | > 100 µM | 73.4 µM | > 100 µM | 37.1 µM | > 100 µM | – | – | – | – |
| O=C(NCCCCCCNC(=O)c1cc(-c2ccccc2)nc2ccccc12)c1cc(-c2ccccc2)nc2ccccc12 | > 100 µM | > 100 µM | > 100 µM | > 100 µM | > 100 µM | – | – | – | – |
| C=C(Br)CNC(=O)CCC(=O)NCC(=C)Br | > 100 µM | > 100 µM | – | > 100 µM | > 100 µM | – | – | – | – |
| C=C(C)[C@@H]1CCC2=C[C@H](OC2=O)[C@@]2(C)C[C@@H]2C2=CC(C)=C(O2)[C@H]1O | > 75 µM | > 75 µM | – | – | > 75 µM | – | – | – | – |
| N[C@H]1CCCC[C@@H]1N1C(=O)c2ccccc2C1(O)c1ccc(Cl)cc1 (stereo partly specified) | 24.2 µM | 28.6 µM | 28.8 µM | 13.6 µM | 23.6 µM | – | – | – | – |
| O=[N+]([O-])c1cc(-c2nc(-c3ccccc3)c(-c3ccccc3)[nH]2)c(O)c([N+](=O)[O-])c1 | 33.4 µM | 36.1 µM | 59.8 µM | 75.1 µM | 46.4 µM | – | – | – | – |
| OCCNCNc1nc(NCNCCO)nc(N(CNCCO)CNCCO)n1 | > 73.9 µM | 46.1 µM | 46 µM | > 68.2 µM | 36.6 µM | – | – | – | – |
| O=[N+]([O-])c1ccc(N/N=C/c2ccc(OCCCCCCCCCCCO)cc2)c([N+](=O)[O-])c1 | 36.1 µM | 45.8 µM | 15.5 µM | > 100 µM | 3.22 µM | – | – | – | – |
| C[C@@H]1CC[C@@H]2[C@@H](C1)O[C@@H]([C@H](C)OCc1ccccc1)SC2(C)C | 29.6 µM | > 100 µM | > 100 µM | 35.1 µM | 47.1 µM | – | – | – | – |
| COc1ccc(C(=O)/C=C/c2cc(O)c(O)c(F)c2F)c(OC)c1 | > 100 µM | 41.7 µM | 70.5 µM | 40.8 µM | > 100 µM | – | – | – | – |
| N#Cc1cnc(N)nc1NCC1(CO)CC(CCc2ccccc2)C1 (stereo unspecified) | > 100 µM | > 100 µM | > 100 µM | > 100 µM | > 100 µM | – | – | – | – |
| N#Cc1c(N)nc(Sc2ccccc2N)c(C#N)c1-c1ccc(Cl)cc1 | 9.64 µM | > 63 µM | 33.2 µM | 28.8 µM | 38.5 µM | – | – | – | – |
| COc1ccc2nc(-c3ccc(O)cc3)sc2c1 | 30.1 µM | 43.6 µM | 36.3 µM | 0.678 µM | 47.5 µM | – | – | – | – |
| CO/N=C(\C)c1cccc(Nc2c3ccccc3nc3occc23)c1 | 31.5 µM | 20.9 µM | 48.8 µM | 27.7 µM | 25.7 µM | – | – | – | – |
| O=C(Nc1nc(C23CC4CC(CC(C4)C2)C3)cs1)c1cc2ccccc2oc1=O | > 100 µM | > 100 µM | > 100 µM | > 100 µM | – | – | – | – | – |
| Cc1cc(=O)oc2c(CNC(Cc3ccccc3)C(=O)O)c(O)ccc12 (stereo unspecified) | > 100 µM | > 100 µM | – | > 100 µM | > 100 µM | – | – | – | – |
| Cc1nc2c(=O)n(C)ncc2[nH]1 | > 100 µM | > 100 µM | > 100 µM | > 100 µM | > 100 µM | – | – | – | – |
| COI1NC(=O)c2ccccc21 | > 100 µM | > 100 µM | – | > 100 µM | > 100 µM | – | – | – | – |
